“Also recorded” adds a separate entry of the source.
Assays:
cervix of pregnant rats = experiment: Cervical ripening assessed in vivo by collagen light-induced fluorescence (LIF) with the collascope; parameters: species or system Sprague-Dawley rats
Text: (§1) Nonpregnant and timed-pregnant Sprague-Dawley rats (200-250 g) from Charles-River Laboratories (Wilmington, Mass., USA) were delivered to animal care facilities on day 12 of gestation (day 1 being the day when a sperm plug was observed). The animals were housed separately, with free access to food and water and maintained on a constant 12-hour light-dark cycle. Control pregnant rats were spontaneously delivering on day 22 and 23 of gestation. For the measurements with the collascope the animals were anaesthetized (interperitoneal (i.p). injection) with a combination of xylazine (Gemini, Burns Veterinary Supply Inc, Rockville Center, N.Y., USA) and ketamine HCl (Ketaset; Fort Dodge Laboratories Inc, Fort Dodge, Iowa, USA). The animals were randomly allocated to one of the groups and sacrificed by carbon dioxide inhalation on day 3, 5, 7 and 10 postpartum or on day 25 of pregnancy in the groups with delayed delivery. All procedures were approved by the Animal Care and Use Committee of the St. Joseph's Hospital and Medical Center in Phoenix.
(§2) Prior to any treatment LIF measurements were made in control rats throughout pregnancy and postpartum to estimate the LIF profile during gestation (see FIG. 1). Pregnant rats (N=6/group) were treated (see FIG. 2), when not otherwise mentioned (see FIG. 3), from day 13 of pregnancy until delivery. Single daily treatments were performed at 8 a.m. and twice a day treatments at 8 a.m. and 8 p.m. All single injections (4 mg P4, 10 mg 17P, 2 mg promegestone (R5020)) were by the subcutaneous route (s.c.) in sesame oil (0.2 ml), which was also used for the controls. Vaginal gels were applied twice a day with a blunt ball-top needle deep into the vagina. Crinone was used for the P4 vaginal group (equivalent volumes of Crinone were used for 2-15 mg P4/treatment), all data presented show the results of the highest dose (total daily dose of 30 mg P4=⅓ of a applicator of 8% Crinone that contains 90 mg P4). For the vaginal promegestone (R5020) group micronized promegestone (R5020) (1 mg/treatment) was mixed into 0.18 ml of Replens. The control rats for the vaginal groups were treated with Replens (0.18 ml/treatment). For oral P4 treatments (15 mg, bid, vehicle sesame oil or H2O, volume 1 ml) gavage was used. For topical P4 treatment (15 mg, bid, P4 in 1 ml sesame oil, fish oil or in Replens) the drug was applied on the back of animals that were shaved on day 13, 17 and 21. In some animals (N=6) RU-486 (3 mg in 0.2 ml sesame oil) was injected subcutaneously once on day 16 of gestation.
The amount of cervical collagen was evaluated in vivo (only in group subcutaneously P4, vaginal P4, subcutaneously 17P, vaginal promegestone (R5020), subcutaneously RU-486) by measurement of the auto-fluorescent properties of cross-linked collagen with a new prototype of an instrument, termed collascope (Reproductive Research Technologies, Houston, Tex., USA), as used previously with an earlier prototype.
After insertion of a small speculum into the vagina of the anesthetized animal, the optical probe of the collascope was placed on the surface of the exocervix. […] The exposure time for excitation was 100 msec. The average of 20 measurements of the detected fluorescent intensity (photon count) at 390 nm was used for each animal at any given time. Measurements of cervical light-induced fluorescence (LIF) were performed on nonpregnant animals once and in pregnant animals every other day starting at day 13 of gestation until delivery and on postpartum day 3 and/or postpartum day 5 (see FIGS. 2 and 3), and for some animals also on postpartum days 7 and 10 (see FIGS. 1 and 3).
The cervical LIFs obtained at different times of gestation (FIG. 1) were compared using one-way analysis of variance (ANOVA) and multiple pairwise comparison procedures (Holm-Sidak). […]

pregnant rats = experiment: Time of delivery of timed-pregnant rats (hours after 8 a.m. of day 22 of gestation); type: in vivo, Sprague-Dawley rats
Text: as §1, §2
Times of delivery (see also FIG. 4) of controls and various treatment groups were determined as hours after 8 a.m. of day 22 of gestation (FIG. 5). The expulsion of one pup was defined as delivery.
The cervical LIFs obtained at different times of gestation (FIG. 1) were compared using one-way analysis of variance (ANOVA) and multiple pairwise comparison procedures (Holm-Sidak). Student's t-test was used to compare the LIF results of a treatment group to its specific control group at any time in gestation and postpartum and also to determine the differences in delivery times (FIGS. 2, 3 and 5). A two-tailed probability value of P<0.05 was considered statistically significant.
FIG. 15 depicts delay of delivery times in timed pregnant rats treated with progesterone (P4) with different routes and vehicles. Treatment was started on day 13 of gestation and continued until delivery of pups or until delivery was blocked at […] (day 25) past day 22 of gestation. 8 am on day 22 is noted as hour 0 and delay is compared to control group treated only with vehicle. Treatment groups included: P4 in fish oil (vaginal, nasal, injection and topical groups), P4 in cocoa butter (rectal) and P4 in sesame oil (oral). All treatment groups received a total daily dose of 30 mg P4/day except the nasal and subcutaneous injection group which received 1 mg/day and 4 mg/day, respectively. […]

[1] = s.c. injection daily in sesame oil from day 13 (P4 4 mg, 17P 10 mg, R5020 2 mg)
[2] = RU-486 3 mg s.c. once on day 16

| SMILES | cervical LIF / cervical ripening compared with vehicle controls (cervix of pregnant rats; 17P 10 mg s.c. daily from day 13) | effect on delivery (pregnant rats; [1]) | cervical ripening / softening (cervix of pregnant rats; [2]) | cervical LIF compared with vehicle controls (cervix of pregnant rats; RU-486 3 mg s.c. once on day 16, 24 and 72 hours after treatment) | cervical LIF compared with vehicle controls (cervix of pregnant rats; RU-486 3 mg s.c. once on day 16, 5 days after treatment) | animals delivered after 24 hours (pregnant rats; [2]) | delivery of the remaining two animals after treatment (pregnant rats; [2]) [h] | time of induced preterm delivery after injection (pregnant rats; [2]) [h] | cervical LIF / cervical ripening compared with vehicle controls (cervix of pregnant rats; vaginal promegestone (R5020) 1 mg bid in Replens from day 13) | effect on delivery (pregnant rats; vaginal bid from day 13 (P4 15 mg as Crinone; R5020 1 mg in Replens)) |
| --- | --- | --- | --- | --- | --- | --- | --- | --- | --- | --- |
| CCCCCC(=O)O[C@]1(C(C)=O)CC[C@H]2[C@@H]3CCC4=CC(=O)CC[C@]4(C)[C@H]3CC[C@@]21C [17P, 17-alpha-hydroxyprogesterone caproate] | cervix is rigid; also recorded: significantly higher (P<0.05) in the 17P treated group (until day 19 only); also recorded: delayed cervical ripening but not at term immediately preceding delivery; also recorded: only attenuated until day 19 of gestation; also recorded: partly delays ripening; also recorded: not significantly different from controls at day 21; also recorded: significant differences are only observed until day 19 of gestation | Delivery was not changed; also recorded: does not block delivery at all; also recorded: no significant effect on delaying term delivery | – | – | – | – | – | – | – | – |
| CC#C[C@]1(O)CC[C@H]2[C@@H]3CCC4=CC(=O)CCC4=C3[C@@H](c3ccc(N(C)C)cc3)C[C@@]21C [RU-486, mifepristone] | – | – | softened the cervix during preterm delivery; also recorded: cervical ripening occurs after 24 hours followed by preterm delivery | significantly lower (P<0.05) | higher | 4 of 6 | ≤ 48 | 24 to 48 | – | – |
| CCC(=O)[C@@]1(C)CC[C@H]2[C@@H]3CCC4=CC(=O)CCC4=C3CC[C@@]21C [promegestone (R5020), Promegestone] | – | inhibits delivery; also recorded: completely block delivery; also recorded: prevented delivery; also recorded: completely inhibited | – | – | – | – | – | – | cervix is rigid; also recorded: significantly higher (P<0.05) in the promegestone (R5020) treated group (until day 19 only); also recorded: delayed cervical ripening but not at term immediately preceding delivery; also recorded: only attenuated until day 19 of gestation; also recorded: not significantly different from controls; also recorded: significant differences are observed only until day 19 | inhibits delivery; also recorded: completely blocked delivery; also recorded: prevented delivery; also recorded: completely inhibited; also recorded: delivery is blocked |

— patent US10449183B2, “Methods for inhibiting preterm labor and uterine contractility disorders and preventing cervical ripening” (DIGNITY HEALTH, priority 2010, dated 2019)
